Publication PMC2743475 (Bioorganic & medicinal chemistry, 2009)

What was measured:
[1] = tested on: PC-3M prostate cancer cells; conditions: PC-3M cells, spheroid disaggregation; cited from earlier work
[2] = tested on: PC-3M prostate cancer cells; conditions: PC-3M cells, MTT; cited from earlier work
[3] = tested on: PC-3M prostate cancer cells; conditions: mice; cited from earlier work
[4] = in vivo, up to 200 mg/kg; cited from earlier work
prostate cancer cells = conditions: even at 200 µM in vitro; cited from earlier work
Recombinant GSK-3β = Recombinant GSK-3β (Homo sapiens, UniProt P49841); test: in vitro GSK-3β inhibitory assay using Tau [pS396] phosphoELISA kit
Sequence of Recombinant GSK-3β (P49841 whole entry): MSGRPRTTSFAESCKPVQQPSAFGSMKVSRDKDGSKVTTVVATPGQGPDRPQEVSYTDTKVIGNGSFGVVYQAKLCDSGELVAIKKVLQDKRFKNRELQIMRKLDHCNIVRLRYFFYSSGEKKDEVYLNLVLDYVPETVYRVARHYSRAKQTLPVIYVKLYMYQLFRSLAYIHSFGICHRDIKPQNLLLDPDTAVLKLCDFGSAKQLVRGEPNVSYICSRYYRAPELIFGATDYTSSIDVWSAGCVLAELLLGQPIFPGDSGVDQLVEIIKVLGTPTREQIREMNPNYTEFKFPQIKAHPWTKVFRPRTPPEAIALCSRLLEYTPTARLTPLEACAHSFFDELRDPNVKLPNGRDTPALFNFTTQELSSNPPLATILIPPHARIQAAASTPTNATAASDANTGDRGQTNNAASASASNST

Row | IC50 (Recombinant GSK-3β) | SMILES | in vitro anti-invasive properties / invasion [1] | in vitro anti-growth / proliferation [2] | cytotoxic effects at the test doses [3] | formation of tumor micrometastases in distant organs [3] | orthotopic tumor growth [3] | CNS-depressant effects [4] | cytotoxicity (prostate cancer cells)
1 | – | O=C1NC(=O)/C(=C/c2ccc(O)cc2)N1 [Compound 1, (Z)-5-(4-hydroxybenzylidene)-hydantoin] | potent | potent | without apparent cytotoxic effects | inhibited | decreased | – | –
2 | – | CCSc1ccc(/C=C2\NC(=O)NC2=O)cc1 [Compound 2, (Z)-5-(4-(ethylthio)benzylidene)-hydantoin] | potent | potent | without apparent cytotoxic effects | inhibited | decreased | – | –
3 | – | CCN(CC)c1ccc(/C=C2\NC(=O)NC2=O)cc1 [Compound 3] | – | – | – | – | – | did not show CNS-depressant effects | lack of cytotoxicity
4 | 14.1 ± 1.9 µM | COc1cccc(/C=C2\NC(=O)NC2=O)c1 [Compound 4] | – | – | – | – | – | – | –
